Experimental data from the supplement of paper PMC13380429.

Legend:
Conditions in all cases: 72 h
HepG2 [1] = test: drug sensitivity score (DSS) for viability; higher = more toxic; extreme values may be limits of the assay
Vero E6 [2] = test: as above
Calu-3 [3] = test: as above
U2OS [4] = test: as above
Caco-2 [5] = test: as above
HepG2 [6] = test: cell viability relative to DMSO; higher = less toxic
Vero E6 [7] = test: as above
Calu-3 [8] = test: as above
U2OS [9] = test: as above
Caco-2 [10] = test: as above
HepG2 [11] = test: relative viability EC50 (midpoint between 100% and the lowest measured viability); higher = less toxic
Vero E6 [12] = test: as above
Calu-3 [13] = test: as above
U2OS [14] = test: as above
Caco-2 [15] = test: as above

Row | SMILES | drug sensitivity score (HepG2 [1]) | drug sensitivity score (Vero E6 [2]) | drug sensitivity score (Calu-3 [3]) | drug sensitivity score (U2OS [4]) | drug sensitivity score (Caco-2 [5]) | cell viability (HepG2 [6]; 1 nM) [%] | cell viability (HepG2 [6]; 10 nM) [%] | cell viability (HepG2 [6]; 100 nM) [%] | cell viability (HepG2 [6]; 1000 nM) [%] | cell viability (HepG2 [6]; 10000 nM) [%] | cell viability (Vero E6 [7]; 1 nM) [%] | cell viability (Vero E6 [7]; 10 nM) [%] | cell viability (Vero E6 [7]; 100 nM) [%] | cell viability (Vero E6 [7]; 1000 nM) [%] | cell viability (Vero E6 [7]; 10000 nM) [%] | cell viability (Calu-3 [8]; 1 nM) [%] | cell viability (Calu-3 [8]; 10 nM) [%] | cell viability (Calu-3 [8]; 100 nM) [%] | cell viability (Calu-3 [8]; 1000 nM) [%] | cell viability (Calu-3 [8]; 10000 nM) [%] | cell viability (U2OS [9]; 1 nM) [%] | cell viability (U2OS [9]; 10 nM) [%] | cell viability (U2OS [9]; 100 nM) [%] | cell viability (U2OS [9]; 1000 nM) [%] | cell viability (U2OS [9]; 10000 nM) [%] | cell viability (Caco-2 [10]; 1 nM) [%] | cell viability (Caco-2 [10]; 10 nM) [%] | cell viability (Caco-2 [10]; 100 nM) [%] | cell viability (Caco-2 [10]; 1000 nM) [%] | cell viability (Caco-2 [10]; 10000 nM) [%] | relative viability EC50 (HepG2 [11]) [µM] | relative viability EC50 (Vero E6 [12]) [µM] | relative viability EC50 (Calu-3 [13]) [µM] | relative viability EC50 (U2OS [14]) [µM] | relative viability EC50 (Caco-2 [15]) [µM]
1 | Cc1oc(-c2ccccc2)nc1CCOc1ccc(CC2SC(=O)NC2=O)c2sccc12 (stereo not given) [edaglitazone] | 0 | 2.6 | 0 | 0 | 0.1 | 102 | 107 | 93.6 | 100 | 88.8 | 103 | 102 | 89.4 | 83.7 | 86.7 | 106 | 102 | 114 | 97.5 | 102 | 99.4 | 93 | 99.2 | 97.4 | 96.9 | 104 | 98.6 | 90.4 | 96.1 | 87.2 | > 10 | > 10 | > 10 | > 10 | > 10
2 | C[N+]1(C)[C@@H]2C[C@@H](OC(=O)C(O)(c3cccs3)c3cccs3)C[C@H]1[C@@H]1O[C@@H]12 [tiotropium] | 0 | 0 | 0 | 0 | 0 | 102 | 93.9 | 98.8 | 99.4 | 104 | 103 | 98.6 | 101 | 95.9 | 102 | 102 | 98.7 | 96.4 | 95.2 | 108 | 93.4 | 94 | 95.3 | 96.8 | 108 | 105 | 100 | 101 | 99.5 | 104 | > 10 | > 10 | > 10 | > 10 | > 10
3 | O=C(O)c1ccccc1Nc1cccc(C(F)(F)F)c1 [flufenamic-acid] | 0 | 0 | 0 | 0 | 0 | 93.7 | 103 | 101 | 102 | 101 | 104 | 94.2 | 100 | 96 | 95.8 | 101 | 108 | 95.9 | 112 | 92.2 | 98.5 | 98.1 | 95.5 | 97.5 | 100 | 93.5 | 96.3 | 85.4 | 101 | 96.2 | > 10 | > 10 | > 10 | > 10 | > 10
4 | COC1(C[S@@+]([O-])c2ccccc2)CCN(CCc2c[nH]c3ccc(F)cc23)CC1 | 0 | 0 | 0 | 0 | 0 | 95.9 | 88.4 | 86.6 | 96.6 | 84.1 | 103 | 101 | 92.5 | 102 | 93.8 | 100 | 94.6 | 99 | 101 | 100 | 96.2 | 95.9 | 100 | 96.5 | 99.9 | 93.6 | 99.1 | 87.1 | 102 | 90.3 | > 10 | > 10 | > 10 | > 10 | > 10
5 | CO/N=C(\C(=O)N[C@@H]1C(=O)N2C(C(=O)O)=CCS[C@H]12)c1csc(N)n1 [ceftizoxim] | 0 | 0 | 0 | 0 | 0 | 97.5 | 96.1 | 107 | 103 | 103 | 102 | 99.2 | 95.2 | 95.6 | 105 | 97.2 | 93.6 | 103 | 105 | 93.4 | 97.7 | 99.2 | 94.5 | 98.8 | 98.7 | 89.5 | 100 | 92.1 | 103 | 95.7 | > 10 | > 10 | > 10 | > 10 | > 10
6 | Cc1ccc(-c2ncc(Cl)cc2-c2ccc(S(C)(=O)=O)cc2)cn1 [etoricoxib] | 0 | 0 | 0 | 0 | 0 | 101 | 90.5 | 99.5 | 104 | 98.6 | 96.4 | 101 | 96.5 | 99.2 | 94 | 94.7 | 99 | 90 | 104 | 101 | 98.1 | 103 | 97.2 | 98.5 | 94.2 | 95.3 | 108 | 92.5 | 99.9 | 104 | > 10 | > 10 | > 10 | > 10 | > 10
7 | N[C@@H](C(=O)O)c1nn[nH]n1 (racemic) [tetrazol-5-yl-glycine-(RS)] | 0 | 0 | 0.1 | 0 | 0 | 91 | 107 | 101 | 96.6 | 108 | 95 | 104 | 90.2 | 98.3 | 107 | 112 | 109 | 105 | 95.2 | 89.3 | 104 | 98.5 | 103 | 93.7 | 104 | 97.2 | 95.6 | 104 | 98 | 90.6 | > 10 | > 10 | > 10 | > 10 | > 10
8 | CC(C)(C)c1cc(NC(=O)Nc2ccc(-c3cn4c(n3)sc3cc(OCCN5CCOCC5)ccc34)cc2)no1 [quizartinib] | 0 | 0 | 0 | 0 | 0.6 | 85.7 | 97.5 | 90.9 | 89 | 93.3 | 99.1 | 100 | 98.8 | 104 | 99.8 | 104 | 97.3 | 96.6 | 93.4 | 96.1 | 101 | 97.4 | 103 | 93.6 | 103 | 103 | 105 | 103 | 90.9 | 86.5 | > 10 | > 10 | > 10 | > 10 | > 10
9 | O=C(NC1CCN(CCc2c[nH]c3ccccc23)CC1)c1ccccc1 [indoramin] | 0 | 0 | 0 | 0 | 0 | 100 | 92.9 | 105 | 98.9 | 95.9 | 96.7 | 94.4 | 98.7 | 99.7 | 102 | 90.4 | 92.8 | 103 | 101 | 107 | 95.3 | 99.3 | 97.5 | 104 | 100 | 89.4 | 98.2 | 101 | 101 | 99.5 | > 10 | > 10 | > 10 | > 10 | > 10
10 | CC1(C)CCC(C)(C)c2cc(C3(c4ccc5cc(C(=O)O)ccc5c4)SCCS3)ccc21 | 0 | 0 | 0 | 0 | 0 | 101 | 85.2 | 96.3 | 106 | 102 | 95.8 | 98.7 | 96.6 | 98 | 100 | 104 | 106 | 89.4 | 113 | 98.8 | 97.9 | 104 | 94.4 | 93.5 | 98.6 | 106 | 104 | 93.9 | 94.7 | 94.6 | > 10 | > 10 | > 10 | > 10 | > 10
11 | O=C(O)C1=CCCN(CCOC(c2ccc(C(F)(F)F)cc2)c2ccc(C(F)(F)F)cc2)C1 [CI-966] | 0 | 0 | 0 | 0 | 0 | 98.7 | 99.3 | 104 | 95.5 | 109 | 98.2 | 99.4 | 101 | 97.8 | 99.4 | 97.6 | 101 | 102 | 98.5 | 96.4 | 101 | 107 | 106 | 98.7 | 98 | 101 | 101 | 105 | 100 | 90.4 | > 10 | > 10 | > 10 | > 10 | > 10
12 | Cc1c(S(=O)(=O)O)oc2c1C(=O)C(=O)c1c-2ccc2c1CCCC2(C)C [sodium-tanshinone-II-A-sulfonate] | 0 | 1.8 | 0 | 0 | 0 | 106 | 92.2 | 116 | 95.9 | 107 | 103 | 100 | 97.5 | 84.5 | 94.1 | 90.2 | 100 | 101 | 99.1 | 98.6 | 96.4 | 99.7 | 91.1 | 99.6 | 94.6 | 97.7 | 96.3 | 109 | 93.2 | 102 | > 10 | > 10 | > 10 | > 10 | > 10
13 | CCC(c1ccccc1)c1c(O)c2ccccc2oc1=O (stereo not given) [phenprocoumon] | 0 | 0 | 0 | 0 | 0 | 90.2 | 107 | 87.5 | 99.7 | 108 | 100 | 108 | 97.3 | 102 | 102 | 102 | 100 | 102 | 93.6 | 94.8 | 96.8 | 92.5 | 101 | 99.8 | 104 | 91.4 | 97.6 | 104 | 92.2 | 104 | > 10 | > 10 | > 10 | > 10 | > 10
14 | CC(C)(O)C(Cl)(Cl)Cl [chlorobutanol] | 0 | 0 | 0 | 0 | 0 | 110 | 96.8 | 105 | 96.1 | 110 | 102 | 96.9 | 100 | 102 | 102 | 105 | 107 | 104 | 110 | 98.9 | 99.7 | 101 | 96.5 | 98.3 | 96.5 | 95 | 107 | 98.7 | 85.2 | 98.1 | > 10 | > 10 | > 10 | > 10 | > 10
